Legend:
[1] = Pharmacokinetic experiment (gavage, plasma); assay type: in vivo; conditions: rat, gavage (p.o.) 10 mg/kg; for AUC(0-t) / Cmax / Tmax: po
Experimental: Test Example 1 Pharmacokinetic Experiment
Accurately weighed approximately 10 mg of the test sample, dissolved in DMSO to a total volume of 10%, then slowly added 0.5% MC solvent to a total volume of 90% while stirring, sonicated, vortexed, and obtained a solution of visually homogeneous formulation with a concentration of 1 mg/mL; freshly prepared before use.
Pipetted 0.2 mL of the sample into a 1.5 mL centrifuge tube and stored at −80° C. for use in the concentration analysis of the drug solution.
The animals were housed in rat cages and fasted for at least 10 hours prior to the experiment, but had access to water. On the day of the experiment, the animals were weighed and marked on the tail. Blank blood samples were collected prior to drug administration. Blood was collected from the tail vein.
• Route of administration: gavage (p.o.) • Dosage concentration: 1 mg/ml • Dosage: 10 mg/kg • Volume: 10 mL/kg • Procedure: Caught the rat with left hand wearing bite-resistant gloves, hold it upright, inserted the gavage needle into its mouth and throat, and injected the drug into its stomach after confirming that there was no obvious resistance.
Test animals were sampled at 0.5 h, 1 h, 2 h, 4 h, 6 h, 8 h, 12 h, and 24 h post-administration, collected 0.1-0.2 ml of whole blood into EDTA-Na2 anticoagulant tubes, inverted the tubes 3-4 times to mix thoroughly, and centrifuged at 4° C. and 2000 g for 5 minutes to separate the upper layer of plasma. The plasma was promptly transferred to −80° C. for storage and analysis. Blood collection was performed via the tail vein.
(§1) 5. Sample Analysis and Data Processing
(§2) A quantitative detection method for the target compounds was established using Shimadzu liquid chromatography and Triple Quad TM 6500+AB mass spectrometry. The concentration of the parent drug in plasma was analyzed. The analysis results were controlled for variability using quality control samples, and the accuracy of the quality control samples should be between 80% and 120%.
The non-compartmental model in the winnonlin Phoenix software was used to calculate the main pharmacokinetic parameters. These included the area under the pharmacokinetic curve (AUC(0-t) and AUC(0-∞)), elimination half-life (T1/2), maximum plasma concentration (Cmax), and time to reach maximum plasma concentration (Tmax).

[2] = tested on: brain slices containing the hippocampus (CA3 stimulation, CA1 recording); test: Electrophysiological LTP recording (fEPSP in hippocampal brain slices); assay type: cell-based, C57BL/6J mice; conditions: for activation effects on LTP (in words): same detection method as Table 5
Experimental: Test Example 3 Electrophysiological LTP Recording
3.1 Preparation of Brain Slices:
C57BL/6J mice aged 6-8 weeks was taken and anesthetized, then quickly decapitated. The scalp was cut open, and removed the skull and dura mater. Quickly removed the whole brain and placed it in 0-4° C. artificial cerebrospinal fluid (ACSF) saturated with 95% O2 and 5% CO2 to cool it slightly. Resected the cerebellum and one-third of the forebrain, divided the brain into two halves along the midline, and dissected the hippocampus along the cortical margin from the medial side of the brain. The brain tissue containing the hippocampus was fixed on a slide dish with glue, and cut into 400-micron-thick brain slices in the coronal plane by a vibrating microtome. The brain slices were then placed in an incubation chamber on a nylon mesh submerged beneath the liquid surface, continuously supplied with a mixed gas, and incubated at 34° C. in a water bath for 0.5 h. The slices were then transferred to room temperature (26±1° C.) for further incubation until ready for use, with the experiment commencing 2-3 hours later.
3.2 In vitro brain slice potential recording:
Under direct visualization with a surgical microscope, a bipolar metal tungsten wire stimulation electrode with exposed tip was placed on the Schaffer collateral pathway of the CA3 region. The stimulation electrode was connected to the stimulator via an isolator, and the recording electrode was connected to a […] via a microelectrode amplifier, and then connected to data acquisition software.
3.3 Electrophysiological recording:
Before recording field excitatory postsynaptic potentials (fEPSPs), the brain slice was transferred to a recording chamber, and continuously perfused the cerebrospinal fluid in a water bath with a mixture of gases (95% 02, 5% CO2). The stimulation electrode was inserted into the CA3 region of the hippocampus, and the recording electrode was inserted into the CA1 region of the hippocampus. When approaching the target location, the insertion depth of the stimulation electrode and recording electrode was slowly and precisely adjusted. At the same time, a pulse with a width of 1 ms was applied every 10-20 s, and the stimulus intensity was adjusted until the optimal fEPSP was achieved. Then the electrode position was fixed, and a stimulus intensity achieving 30-40% of the maximum response elicited at the optimal fEPSP was set as a stimulus intensity to record a baseline of fEPSP. The recording was continued for 20-30 min to establish a stable baseline value. Subsequently, perfusion administration was performed (initial exploratory dose of 30 μM), with the administration duration ranging from 20-30 minutes (depending on the drug's efficacy). If the drug enhanced or reduced fEPSP, normal ACSF was used for elution for 40-60 minutes to observe whether the enhanced effect could be sustained over the long term: if there was no significant change in fEPSP, the experiment was terminated. […] Experimental data and images were processed using Clampfit software.
4. Data Statistics and Analysis:
All experimental data were expressed as mean±standard error (Mean f SEM). All statistical analyses were performed using one-way ANOVA. Significant differences were indicated as follows: *p≤0.05, **p≤0.01, ***p≤0.001. p>0.05 indicated no significant difference.

[3] = Brain-penetrating pharmacokinetic study (plasma, brain tissue); assay type: in vivo, Sprague-Dawley (SD) rat; conditions: SD rat, gavage (p.o.) 10 mg/kg single dose; for Kp: Sprague-Dawley, brain/plasma, po, read-out: Ratio of total drug in Brain tissue/plasma(B/P)
Excerpt: Test Example 2 Brain-Penetrating Pharmacokinetic Study
Solvent for Administration: 5% DMSO+10% Solutol HS15+85% physiological saline
Formulation preparation process: weighed an appropriate amount of powder, added an appropriate volume of DMSO, vortexed, then added an appropriate volume of Solutol solution, vortexed, and finally added an appropriate amount of physiological saline, vortexed and sonicated to obtain a homogeneous, clear formulation solution.
Two samples of the formulation were retained before administration, and the remaining formulation after administration was stored at 2-8° C. for shipment.
Laboratory animals were housed in the animal facility of Suzhou Xihua New Drug Development Co., Ltd. (license number: SYXK(Su)2021-0019). The animal facility was equipped with an air conditioning system and had good ventilation. The indoor temperature was maintained 20° C.-26° C., and the humidity was maintained 40%-70%4. Artificial lighting was used in the animal rooms, with 12 hours of light and 12 hours of darkness (except when work lighting was required for experimental operations and cleaning). The experimental animals were allowed to eat and drink water freely.
After purchase, the animals were fed normally for at least 3 days. […] Each rat was marked with a tail tag. Animals in the oral administration group were fasted overnight on the day before administration and resumed feeding 4 hours after administration, and free access to water.
• Route of administration: gavage (p.o.) • Concentration: 1 mg/ml • Dose: 10 mg/kg • Volume: 10 mL/kg • Frequency: Single dose
Before administration, checked the condition of the drug formulation and ensured its uniformity by swirling, stirring, or shaking. Calculated the theoretical dosage volume for each SD rat in each group using the following formula.
4. Sample Collection and Processing
Samples were collected from experimental rats at 0.5 h, 1 h, 2 h, 4 h, 6 h, 8 h, and 24 h after administration.
Plasma: At each time point, 0.15 mL of whole blood was collected via the jugular vein and placed in a tube containing anticoagulant (3 μL of 15% EDTA-K2 solution). The tubes were stored on wet ice and centrifuged within 1 hour (2,000 g, 2-8° C., for 10 minutes) to obtain plasma. The plasma was stored in pre-chilled centrifuge tubes, rapidly frozen in dry ice, and then stored at −60° C. or lower in an ultra-low temperature freezer until LC-MS/MS analysis.
Cerebrospinal fluid: the rats was euthanized using the carbon dioxide method. ~50 μL of cerebrospinal fluid was collected using a puncture method, 1 mL syringe was used with the needle bevel facing upward and the needle tip nearly horizontal to puncture the subarachnoid space, secured the needle and slowly withdrew the cerebrospinal fluid. The sample was stored in dry ice within 30 minutes after collection, then transferred it to a −90~−60° C. environment.
Brain tissue: A cardiac perfusion was performed first, followed by brain tissue extraction. Under deep terminal anesthesia, approximately 8 milliliters of physiological saline were used for cardiac perfusion to flush the remaining blood from the brain tissue out of the circulation. After extraction, the brain tissue was gently washed once with frozen physiological saline, blotted up the water, weighed, and then transferred to a storage environment at −90~−60° C. for cryopreservation.
as §1
as §2, with “the sample” for “plasma”
Winnonlin Phoenix 8.1.0.3530 was used to calculate pharmacokinetic parameters: Tmax, Cmax, AUC(0-t), AUC(0-∞), Tu2, MRT(0-∞), etc. […]

AUC(0-t) [1] [ng·h/mL] | Cmax [1] [ng/mL] | Tmax [1] [min] | Structure (SMILES) | activation effects on LTP (in words) [2] | also measured
3500 | 1020 | 79.8 | O=C1C=C(OCc2ccc(F)cc2)[C@H](Cc2ccccn2)N1 [Compound T-01] |  | electrical signal conduction in brain slices (in words) ([2]; perfusion administration, hippocampal slices): significantly enhanced electrical signal conduction in brain slices; activation of LTP compared with the control compound (in words) ([2]; versus Compound 50561): higher activation of LTP; Total drug exposure (AUC) in brain tissue ([3]; brain tissue): 1198 ng·h/mL; Total drug exposure (AUC) in brain tissue ([3]; plasma): 1929 ng·h/mL; Kp [3]: 0.621
6730 | 1890 | 90 | C[C@@H](OC1=CC(=O)N[C@H]1Cc1ccccc1)c1ccc(F)cc1 [Compound T-47] | excellent activation effects on LTP | pharmacokinetic properties (in words) [1]: excellent pharmacokinetic properties; Total drug exposure (AUC) in brain tissue ([3]; brain tissue): 11452 ng·h/mL; Total drug exposure (AUC) in brain tissue ([3]; plasma): 5529 ng·h/mL; Kp [3]: 2.07
 |  |  | C[C@@H](c1ccccn1)[C@@H]1NC(=O)C=C1OCc1ccc(F)cc1 [Compound T-74] | excellent activation effects on LTP | 
 |  |  | C[C@H](c1ccccn1)[C@@H]1NC(=O)C=C1O[C@H](C)c1ccc(F)cc1 [Compound T-79] | excellent activation effects on LTP | 
 |  |  | C[C@@H](c1ncccc1F)[C@@H]1NC(=O)C=C1OCc1ccc(F)cc1 [Compound T-76] | excellent activation effects on LTP | 
2500 | 838 | 79.8 | O=C1C=C(OCc2ccc(F)cc2)[C@H](Cc2ccccc2)N1 [Compound 50561, reference compound] |  | 
 |  |  | C[C@@H](OC1=CC(=O)N[C@H]1Cc1ncccc1F)c1ccc(F)cc1 [Compound T-54] | excellent activation effects on LTP | 
5700 | 2970 | 15 | C[C@@H](OC1=CC(=O)N[C@H]1Cc1ccccn1)c1ccc(F)cc1 [Compound T-51] | excellent activation effects on LTP | pharmacokinetic properties (in words) [1]: excellent pharmacokinetic properties
2470 | 1420 | 25.2 | O=C1C=C(OCc2ccc(F)cc2)[C@H](Cc2ncccc2F)N1 [Compound T-36] | excellent activation effects on LTP | 
 |  |  | C[C@H](c1ncccc1F)[C@@H]1NC(=O)C=C1O[C@H](C)c1ccc(F)cc1 [Compound T-99] | excellent activation effects on LTP | 
 |  |  | C[C@H](c1ncccc1F)[C@@H]1NC(=O)C=C1OCc1ccc(F)cc1 [Compound T-75] | excellent activation effects on LTP | 
3410 | 1880 | 30 | [2H]C([2H])(OC1=CC(=O)N[C@H]1Cc1ccccc1)c1ccc(F)cc1 [Compound T-45] |  | 
5800 | 1030 | 49.8 | C[C@@H](c1ccccc1)[C@@H]1NC(=O)C=C1OCc1ccc(F)cc1 [Compound T-95] |  | pharmacokinetic properties (in words) [1]: excellent pharmacokinetic properties
 |  |  | C[C@@H](OC1=CC(=O)N[C@H]1[C@@H](C)c1ncccc1F)c1ccc(F)cc1 [Compound T-100] | excellent activation effects on LTP | 
 |  |  | C[C@@H](OC1=CC(=O)N[C@H]1[C@@H](C)c1ccccn1)c1ccc(F)cc1 [Compound T-80] | excellent activation effects on LTP | 
 |  |  | C[C@H](c1ccccn1)[C@@H]1NC(=O)C=C1OCc1ccc(F)cc1 [Compound T-73] | excellent activation effects on LTP | 
